Source: patent publication US11970498B2, “CDK2 inhibitors” (BLUEPRINT MEDICINES CORPORATION, priority 2021, dated 2024)

Experiments:
CDK1/Cyclin B1, GST-tag = target: T1, CDK1/Cyclin B1, GST-tag (Homo sapiens, UniProt P06493); assay: CDK1/Cyclin B1 biochemical phosphorylation assay (Caliper mobility shift); conditions: apparent IC50; 1.0 mM ATP or ATP Km; 1.5 nM enzyme; 25° C.
T1 construct: GST
In short: (§1)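 7.5 µM 5-FAM-QSPKKG-CONH2 peptide phosphorylated by CDK2/Cyclin E (1.25 nM) or GST-CDK1/Cyclin B1 (1.5 nM) at 1.0 mM ATP or ATP Km, in HEPES pH 7.5, MgCl2, Brij-35, DTT, 1% DMSO, 25 °C to 10–20% conversion. EDTA stop; Caliper mobility-shift readout; apparent IC50 from percent activity vs log concentration.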

CDK2/Cyclin E = CDK2/Cyclin E (Homo sapiens, UniProt P24941); assay: CDK2/Cyclin E biochemical phosphorylation assay (Caliper mobility shift); conditions: apparent IC50; 1.0 mM ATP or ATP Km; 1.25 nM enzyme; 25° C.; read-out: CDK2/cyclin E1 IC50
In short: as §1

T1 sequence (P06493 whole entry): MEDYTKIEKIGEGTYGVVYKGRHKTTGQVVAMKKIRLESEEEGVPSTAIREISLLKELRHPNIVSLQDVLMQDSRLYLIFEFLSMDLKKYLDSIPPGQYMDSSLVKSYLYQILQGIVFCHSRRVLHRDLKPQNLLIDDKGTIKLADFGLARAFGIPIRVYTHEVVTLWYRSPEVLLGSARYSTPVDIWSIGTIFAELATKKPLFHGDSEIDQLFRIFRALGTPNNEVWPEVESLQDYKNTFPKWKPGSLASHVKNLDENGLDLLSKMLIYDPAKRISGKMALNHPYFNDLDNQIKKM
T1 sequence (P14635 whole entry partner): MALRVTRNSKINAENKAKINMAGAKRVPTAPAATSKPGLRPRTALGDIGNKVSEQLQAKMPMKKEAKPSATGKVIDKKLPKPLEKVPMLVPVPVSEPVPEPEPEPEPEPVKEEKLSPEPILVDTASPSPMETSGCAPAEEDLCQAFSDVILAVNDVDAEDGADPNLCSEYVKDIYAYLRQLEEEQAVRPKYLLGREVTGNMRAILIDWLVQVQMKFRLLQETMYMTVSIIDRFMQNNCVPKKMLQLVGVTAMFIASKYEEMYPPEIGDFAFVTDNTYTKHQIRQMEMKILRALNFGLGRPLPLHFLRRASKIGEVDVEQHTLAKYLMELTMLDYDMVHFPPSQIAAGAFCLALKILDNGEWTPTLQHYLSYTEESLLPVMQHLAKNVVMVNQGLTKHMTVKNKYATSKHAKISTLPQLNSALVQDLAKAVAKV

Row | SMILES | IC50 (CDK1/Cyclin B1, GST-tag) [nM] | IC50 (CDK2/Cyclin E) [nM]
1 | C[C@H](c1cccc(F)n1)n1ncc2ncc(Nc3cc(OC(F)F)[nH]n3)nc21 (single isomer, unassigned) [Example 155, (R)-N-(5-(difluoromethoxy)-1H-pyrazol-3-yl)-1-(1-(6-fluoropyridin-2-yl)ethyl)-1H-pyrazolo[3,4-b]pyrazin-6-amine or (S)-N-(5-(difluoromethoxy)-1H-pyrazol-3-yl)-1-(1-(6-fluoropyridin-2-yl)ethyl)-1H-pyrazolo[3,4-b]pyrazin-6-amine] | ≥ 500 | 30 to 100
2 | C[C@@H](c1cncc(F)c1)n1ncc2ncc(Nc3cc(OC(F)F)[nH]n3)nc21 (single isomer, unassigned) [Example 153, (S)-N-(5-(difluoromethoxy)-1H-pyrazol-3-yl)-1-(1-(5-fluoropyridin-3-yl)ethyl)-1H-pyrazolo[3,4-b]pyrazin-6-amine or (R)-N-(5-(difluoromethoxy)-1H-pyrazol-3-yl)-1-(1-(5-fluoropyridin-3-yl)ethyl)-1H-pyrazolo[3,4-b]pyrazin-6-amine] | ≥ 500 | 10 to 20
3 | Cc1ncccc1Cn1ncc2ncc(Nc3cc(OC(F)F)[nH]n3)nc21 [Example 95, N-(5-(difluoromethoxy)-1H-pyrazol-3-yl)-1-((2-methylpyridin-3-yl)methyl)-1H-pyrazolo[3,4-b]pyrazin-6-amine] | ≥ 500 | 20 to 30
4 | C[C@@H](c1ccccc1)n1ncc2ncc(Nc3cc(OC(F)F)[nH]n3)nc21 [Example 93, (S)-N-(5-(difluoromethoxy)-1H-pyrazol-3-yl)-1-(1-phenylethyl)-1H-pyrazolo[3,4-b]pyrazin-6-amine] | ≥ 500 | ≤ 10
5 | COc1cc(Nc2cnc3cnn([C@@H](C(F)F)C4CCOCC4)c3n2)n[nH]1 (single isomer, unassigned) [Example 193, (S)-1-(2,2-difluoro-1-(tetrahydro-2H-pyran-4-yl)ethyl)-N-(5-methoxy-1H-pyrazol-3-yl)-1H-pyrazolo[3,4-b]pyrazin-6-amine or (R)-1-(2,2-difluoro-1-(tetrahydro-2H-pyran-4-yl)ethyl)-N-(5-methoxy-1H-pyrazol-3-yl)-1H-pyrazolo[3,4-b]pyrazin-6-amine] | ≥ 500 | 10 to 20

Results, then the molecule that gave them:

Row | IC50 (CDK1/Cyclin B1, GST-tag) [nM] | IC50 (CDK2/Cyclin E) [nM] | SMILES
6 | ≥ 500 | 30 to 100 | FC(F)Oc1cc(Nc2cnc3cnn(C[C@@]4(F)CCOC4)c3n2)n[nH]1 (single isomer, unassigned) [Example 168, (R)-N-(5-(difluoromethoxy)-1H-pyrazol-3-yl)-1-((3-fluorotetrahydrofuran-3-yl)methyl)-1H-pyrazolo[3,4-b]pyrazin-6-amine or (S)-N-(5-(difluoromethoxy)-1H-pyrazol-3-yl)-1-((3-fluorotetrahydrofuran-3-yl)methyl)-1H-pyrazolo[3,4-b]pyrazin-6-amine]
7 | ≥ 500 | ≤ 10 | FC(F)Oc1cc(Nc2cnc3cnn(CC4CC4)c3n2)n[nH]1 [Example 80, 1-(cyclopropylmethyl)-N-(5-(difluoromethoxy)-1H-pyrazol-3-yl)-1H-pyrazolo[3,4-b]pyrazin-6-amine]
8 | 100 to 500 | ≤ 10 | FC(F)Oc1cc(Nc2cnc3cnn(CC4CCC4)c3n2)n[nH]1 [Example 101, 1-(cyclobutylmethyl)-N-(5-(difluoromethoxy)-1H-pyrazol-3-yl)-1H-pyrazolo[3,4-b]pyrazin-6-amine]
9 | ≥ 500 | 30 to 100 | [2H]C([2H])(C)n1ncc2ncc(Nc3cc(OC(F)F)[nH]n3)nc21 [Example 225, N-(5-(difluoromethoxy)-1H-pyrazol-3-yl)-1-(ethyl-1,1-d2)-1H-pyrazolo[3,4-b]pyrazin-6-amine]
10 | ≥ 500 | 10 to 20 | CC(C)Cn1ncc2ncc(Nc3cc(OC(F)F)[nH]n3)nc21 [Example 100, N-(5-(difluoromethoxy)-1H-pyrazol-3-yl)-1-isobutyl-1H-pyrazolo[3,4-b]pyrazin-6-amine]
